Where two headings read alike, the source gives them in different places.
Columns and labels:
[1] = Experimental lipophilicity by RP-TLC; details: for φ0 (hydrophobicity index): φ0 = −RM0/b
Description: The RP-TLC method was used to determine the experimental lipophilicity according to the literature. Modified silica gel was used as the stationary phase and a mixture of tris(hydroxymethyl)aminomethane (TRIS) (0.2 M, pH = 7.4) with acetone as the mobile phase. […] For this reason, an aprotic solvent such as acetone was chosen as the mobile phase.
Spots were visualized in iodine vapor.
The retardation parameter (Rf) was converted to the RM parameter according to Equation (1):(1) RM=log(1/Rf−1)
The RM parameter was calculated for every concentration of acetone and extrapolated to zero concentration of organic solvent in the mobile phase. The chromatographic parameter of lipophilicity (RM0) was calculated using Equation (2):(2) RM=RM0+bC where C is the concentration of acetone in the mobile phase, while b is the slope of the regression plot.
In the next step, the relative lipophilicity parameter RM0 was converted to the absolute lipophilicity parameter logPTLC using the calibration curve.
Lipophilicity correlates with hydrophobicity, which determines the solubility of the compound in water. The hydrophobicity is described by the hydrophobicity index (φ0), which can be calculated according to Equation (4). (4) φ0=−RM0/b

[2] = test system: NAD(P)H quinone dehydrogenase 1 (NQO1); details: cited from earlier work
[3] = RP-TLC, acetone/TRIS 0.2 M pH 7.4, extrapolated to zero acetone
[4] = from RM0 by calibration curve Equation (3)

Compound	chromatographic logP [1]	RM0 (chromatographic parameter of lipophilicity) [1, 3]	φ0 (hydrophobicity index) [1]	logNQO1 (enzymatic conversion rate of NQO1) [2]	logPTLC (experimental lipophilicity) [1]	RM0 (chromatographic parameter of lipophilicity) ([1]; pH 7.4)	logPTLC (experimental lipophilicity) [1, 4]
Cc1ccc2c(n1)C(=O)C(Oc1cccc3ccc(C=O)nc13)=C(Cl)C2=O [Compound 15]	2.26	2.05 ± 0.01	71.78	2.672			
NC(=O)c1ccccc1 [A, benzamide, reference compound]	0.54	0.54					
O=C1C(Cl)=C(Oc2cccc3ccc(N4CCCC4)nc23)C(=O)c2cnccc21 [Compound 11]	3.15	2.83 ± 0.03	74.76	2.330			
O=C1C(Cl)=C(Oc2cccc3ccc(N4CCOCC4)nc23)C(=O)c2ccccc21 [Compound 24]	4.5	4.01 ± 0.01	75.95	1.940			
O=C1C(Cl)=C(Oc2cccc3ccc(Cl)nc23)C(=O)c2ccccc21 [Compound 22]	5.06	4.51 ± 0.02	76.85	3.000			
O=C1C(Cl)=C(Oc2cccc3cccnc23)C(=O)c2ncccc21 [Compound 1]			72.87	3.146	1.65	1.51 ± 0.02	
Cc1ccc2cccc(OC3=C(Cl)C(=O)c4ccncc4C3=O)c2n1 [Compound 8]			74.47	3.058	2.85	2.56 ± 0.02	
O=C1C(Cl)=C(Oc2cccc3ccc(N4CCCC4)nc23)C(=O)c2ccccc21 [Compound 23]	4.16	3.72 ± 0.02	81.13	2.549			
O=C1C(Cl)=C(Oc2cccc3ccc(Cl)nc23)C(=O)c2cnccc21 [Compound 10]	3.63	3.25 ± 0.01	78.21	2.801			
O=Cc1ccc2cccc(OC3=C(Cl)C(=O)c4cccnc4C3=O)c2n1 [Compound 3]	1.75	1.60 ± 0.03	68.09	3.041			
c1ccc2cc3ccccc3cc2c1 [E, anthracene, reference compound]	4.45	3.97					
O=C1C(Cl)=C(Oc2cccc3ccc(Cl)nc23)C(=O)c2ncccc21 [Compound 4]	2.55	2.55 ± 0.02	65.88	2.903			
CC(=O)Nc1ccccc1 [B, acetanilide, reference compound]		1.11					1.19
O=C1C(Cl)=C(Oc2cccc3ccc(N4CCOCC4)nc23)C(=O)c2ncccc21 [Compound 6]	2.72	2.45 ± 0.04	66.81	2.053			
Clc1ccc(C(c2ccc(Cl)cc2)C(Cl)(Cl)Cl)cc1 [F, dichlorodiphenyltrichloroethane, reference compound]		5.60					6.31
O=C1C(Cl)=C(Oc2cccc3ccc(N4CCCC4)nc23)C(=O)c2ncccc21 [Compound 5]	2.6	2.35 ± 0.02	74.53	3.034			
O=Cc1ccc2cccc(OC3=C(Cl)C(=O)c4ccncc4C3=O)c2n1 [Compound 9]	2.72	2.45 ± 0.02	73.71	2.502			
O=C1C(Cl)=C(Oc2cccc3cccnc23)C(=O)c2ccccc21 [Compound 19]		2.90 ± 0.02	78.79	3.108			3.23
CC(=O)c1ccc(Br)cc1 [C, 4-bromoacetophenone, reference compound]		2.33					2.58
O=Cc1ccc2cccc(OC3=C(Cl)C(=O)c4ccccc4C3=O)c2n1 [Compound 21]	4.61	4.11 ± 0.01	80.01	2.740			
Cc1ccc2c(n1)C(=O)C(Oc1cccc3ccc(Cl)nc13)=C(Cl)C2=O [Compound 16]	3.3	2.96 ± 0.01	69.66	2.949			
Cc1ccc2c(n1)C(=O)C(Oc1cccc3ccc(C)nc13)=C(Cl)C2=O [Compound 14]			69.97	3.157	2.00	1.82 ± 0.02	
O=C1C(Cl)=C(Oc2cccc3ccc(N4CCOCC4)nc23)C(=O)c2cnccc21 [Compound 12]	3.68	3.30 ± 0.02	72.22	2.155			
Cc1ccc2c(n1)C(=O)C(Oc1cccc3cccnc13)=C(Cl)C2=O [Compound 13]			66.07	3.178	2.31	2.09 ± 0.02	
Cc1ccc2cccc(OC3=C(Cl)C(=O)c4cccnc4C3=O)c2n1 [Compound 2]			68.99	3.112	1.84	1.68 ± 0.03	
O=C1C(Cl)=C(Oc2cccc3cccnc23)C(=O)c2cnccc21 [Compound 7]			72.57	3.083	2.40	2.17 ± 0.01	
Cc1ccc2c(n1)C(=O)C(Oc1cccc3ccc(N4CCCC4)nc13)=C(Cl)C2=O [Compound 17]	3.79	3.39 ± 0.03	75.30	2.778			
Cc1ccc2cccc(OC3=C(Cl)C(=O)c4ccccc4C3=O)c2n1 [Compound 20]		3.34 ± 0.01	79.55	3.100			3.73
Cc1ccc2c(n1)C(=O)C(Oc1cccc3ccc(N4CCOCC4)nc13)=C(Cl)C2=O [Compound 18]	2.98	2.69 ± 0.03	68.95	2.322			
